Values of other authors in patent US20050143343A1, “Nutritional supplement for enhancing the production and effect of natural human growth hormone” (priority 2003, published 2005).

Tested on: human growth hormone secretion
Conditions: oral administration, 15 male volunteers; 1200 mg of each constituent, in combination or alone at the same doses

## L-arginine-2-pyrrolidone-5-carboxylate
  secretion (release) of human growth hormone: Neither of the two constituents resulted a significant release of human growth hormone

## Cl.NCCCC[C@H](N)C(=O)O [L-lysine hydrochloride]
  secretion (release) of human growth hormone: Neither of the two constituents resulted a significant release of human growth hormone
